# Measured values reported in patent US10897901B2, “Herbicidal composition” (FMC Corporation, priority 2007, dated 2021).
# Columns and labels:
# Type in all cases: in vivo
# [1] = system: Chickweed (Stellaria media); assay: Example 4 post-emergence greenhouse pot test, chickweed; conditions: 0.25 lb ai/acre
# Experimental: (§1) Test compositions containing sulfentrazone (75 DF formulation), quniclorac, (DRIVE® 75 DF Herbicide) or mixtures of sulfentrazone and quinclorac at ratios of 1:1 to 1:5, were diluted with water to provide the appropriate test rate concentrations. A nonionic surfactant (0.25%) was added to each test solution. The test weeds include crabgrass (Digitaria sp), Chickweed (Stellaria media), Hemp Sesbania (Sesbania exaltata), Kochia (Kochia scoparia), Ivyleaf Morningglory (Ipomoea hederacea), Redroot Pigweed (Amaranthus retroflexus) and yellow nutsedge (Cyperus esculentusi).
# (§2) For post-emergence testing, three disposable 3 inch square pots for each rate of application of each herbicide were filled with a soil, comprised of peat moss, vermiculite, bark ash, pine bark, limestone and a wetting agent, to which 8 to 10 seeds were planted. The pots were placed in a greenhouse and watered daily, thus allowing the seeds to germinate and the foliage to develop for 22 days, 3 months for Kochia.
# (§3) Pots designated for treatment were placed on a conveyor belt and the conveyor belt fed under a spray nozzle mounted about ten inches above the foliage. The spray of herbicidal solution was commenced and once stabilized; the pots were passed under the spray at a speed to receive a coverage equivalent of 30 gallons per acre. The application rates are those shown in Table 4 below for the individual herbicidal solutions and the mixture of sulfentrazone and quinclorac. The post-emergence pots were immediately placed in the green-house and not watered until 24 hours after treatment with the test solution. Thereafter they were regularly watered at ground level. The control of weeds was evaluated in each experimental test from 2 to 20 days after treatment (DAT). The results, shown as an average of the replications, were compared with results observed in untreated control pots in the same tests.
# (§4) Percent control was determined by a method similar to the 0 to 100 rating system disclosed in “Research Methods in Weed Science,” 2nd ed., B. Truelove, Ed.; Southern Weed Science Society; Auburn University, Auburn, Ala., 1977.
# [2] = system: Blackseed Plantain (Plantago rugelii); assay: Example 1 post-emergent turf plot test, plantain; conditions: 0.57 lb ai/acre
# Experimental: The experimental design used randomized plots with post-emergent treatment and three replications per test trial. The size of each experimental plot was 4 feet by 6 feet. The application of each test composition was performed with pressurized back-pack sprayers, calibrated to spray 200 gallons per acre. Test compositions containing sulfentrazone (DISMISS™ Turf Herbicide), quniclorac, (FACET® 75 DF herbicide) or a mixture of sulfentrazone and quinclorac in a 1:3 ratio, prepared as described above, were diluted with water to provide the appropriate test rate concentrations.
# The control of weeds was evaluated in each experimental plot from 7 to 41 days after treatment (DAT) of each test rate. The results, shown as an average of the replications, were compared with results observed in untreated control plots in the same trials.
# [3] = system: yellow nutsedge (Cyperus esculentusi); assay: Example 3 post-emergence greenhouse pot test, nutsedge
# Experimental: Test compositions containing sulfentrazone (DISMISS™ Turf Herbicide), quniclorac, (DRIVE® 75 DF Herbicide) or mixture of sulfentrazone and quinclorac in a three to one ratio, prepared as described above, were diluted with water to provide the appropriate test rate concentrations. A nonionic surfactant (0.25%) was added to each test solution.
# The test weeds include Red River crabgrass (Digitaria ciliaris) and yellow nutsedge (Cyperus esculentusi).
# as §2, with “develop.” for “develop for 22 days, 3 months for Kochia.”
# as §3, with “Table 3” for “Table 4”, “from 1” for “from 2”, “to 22” for “to 20”
# as §4
# [4] = system: Redroot Pigweed (Amaranthus retroflexus); assay: Example 4 post-emergence greenhouse pot test, pigweed; conditions: 0.25 lb ai/acre
# Experimental: as §1, §2, §3, §4
structure (smiles),measurement,setting,value
"Cc1nn(-c2cc(NS(C)(=O)=O)c(Cl)cc2Cl)c(=O)n1C(F)F [A, N-[2,4-dichloro-5-[4-(difluoromethyl)-4,5-dihydro-3-methyl-5-oxo-1H-1,2,4-triazol-1-yl]phenyl]methanesulfonamide]",Percent Control,[1]; 2 DAT,30%
same,Percent Control,[1]; 7 DAT,30%
same,Percent Control,[1]; 14 DAT,10%
same,Percent Control,[1]; 20 DAT,0%
same,Percent Control,[2]; 7 DAT,83%
same,Percent Control,[2]; 14 DAT,88%
same,Percent Control,[2]; 21 DAT,100%
same,Percent Control,[2]; 28 DAT,100%
same,Percent Control,"[3]; 1-5 leaf stage, 7 days old, 0.125 lb ai/acre, 1 DAT",50%
same,Percent Control,"[3]; 1-5 leaf stage, 7 days old, 0.125 lb ai/acre, 3 DAT",50%
same,Percent Control,"[3]; 1-5 leaf stage, 7 days old, 0.125 lb ai/acre, 7 DAT",63%
same,Percent Control,"[3]; 1-5 leaf stage, 7 days old, 0.125 lb ai/acre, 14 DAT",70%
same,Percent Control,"[3]; 1-5 leaf stage, 7 days old, 0.125 lb ai/acre, 21 DAT",67%
same,Percent Control,"[3]; 1-5 leaf stage, 7 days old, 0.25 lb ai/acre, 1 DAT",70%
same,Percent Control,"[3]; 1-5 leaf stage, 7 days old, 0.25 lb ai/acre, 3 DAT",85%
same,Percent Control,"[3]; 1-5 leaf stage, 7 days old, 0.25 lb ai/acre, 7 DAT",77%
same,Percent Control,"[3]; 1-5 leaf stage, 7 days old, 0.25 lb ai/acre, 14 DAT",68%
same,Percent Control,"[3]; 1-5 leaf stage, 7 days old, 0.25 lb ai/acre, 21 DAT",50%
same,Percent Control,"[3]; 1-5 leaf stage, 7 days old, 0.375 lb ai/acre, 1 DAT",75%
same,Percent Control,"[3]; 1-5 leaf stage, 7 days old, 0.375 lb ai/acre, 3 DAT",91%
same,Percent Control,"[3]; 1-5 leaf stage, 7 days old, 0.375 lb ai/acre, 7 DAT",95%
same,Percent Control,"[3]; 1-5 leaf stage, 7 days old, 0.375 lb ai/acre, 14 DAT",73%
same,Percent Control,"[3]; 1-5 leaf stage, 7 days old, 0.375 lb ai/acre, 21 DAT",70%
same,Percent Control,"[3]; 5-7 leaves, cut to 6 cm tall, 28 days old, 0.125 lb ai/acre, 1 DAT",0%
same,Percent Control,"[3]; 5-7 leaves, cut to 6 cm tall, 28 days old, 0.125 lb ai/acre, 3 DAT",80%
same,Percent Control,"[3]; 5-7 leaves, cut to 6 cm tall, 28 days old, 0.125 lb ai/acre, 7 DAT",85%
same,Percent Control,"[3]; 5-7 leaves, cut to 6 cm tall, 28 days old, 0.125 lb ai/acre, 14 DAT",70%
same,Percent Control,"[3]; 5-7 leaves, cut to 6 cm tall, 28 days old, 0.125 lb ai/acre, 21 DAT",60%
same,Percent Control,"[3]; 5-7 leaves, cut to 6 cm tall, 28 days old, 0.25 lb ai/acre, 1 DAT",0%
same,Percent Control,"[3]; 5-7 leaves, cut to 6 cm tall, 28 days old, 0.25 lb ai/acre, 3 DAT",75%
same,Percent Control,"[3]; 5-7 leaves, cut to 6 cm tall, 28 days old, 0.25 lb ai/acre, 7 DAT",80%
same,Percent Control,"[3]; 5-7 leaves, cut to 6 cm tall, 28 days old, 0.25 lb ai/acre, 14 DAT",80%
same,Percent Control,"[3]; 5-7 leaves, cut to 6 cm tall, 28 days old, 0.25 lb ai/acre, 21 DAT",90%
same,Percent Control,"[3]; 5-7 leaves, cut to 6 cm tall, 28 days old, 0.375 lb ai/acre, 1 DAT",0%
same,Percent Control,"[3]; 5-7 leaves, cut to 6 cm tall, 28 days old, 0.375 lb ai/acre, 3 DAT",90%
same,Percent Control,"[3]; 5-7 leaves, cut to 6 cm tall, 28 days old, 0.375 lb ai/acre, 7 DAT",90%
same,Percent Control,"[3]; 5-7 leaves, cut to 6 cm tall, 28 days old, 0.375 lb ai/acre, 14 DAT",90%
same,Percent Control,"[3]; 5-7 leaves, cut to 6 cm tall, 28 days old, 0.375 lb ai/acre, 21 DAT",90%
same,Percent Control,[4]; 2 DAT,80%
same,Percent Control,[4]; 7 DAT,95%
same,Percent Control,[4]; 14 DAT,99%
same,Percent Control,[4]; 20 DAT,90%
